What all share (format): cell-based
One experiment has as its system HRV16. Briefly: HRV16 HELA EC50 (cytopathic effect in H1-HeLa cells). Put shortly: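 Read-out is luminescent cell viability (CellTiter-Glo) after 96 h of infection at 33 °C, scaled between uninfected and infected-untreated wells. Before infection with titrated virus, compounds went onto H1-HeLa cells as triplicate 3-fold dilution series.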
The subject of another experiment is RSV A2. Briefly: RSV NHBE EC50 (RSV A2 antiviral assay in normal human bronchial epithelial cells). The conditions noted are these: read-out: RSV NHBE EC50.
For another experiment, the system named is RSV strain A2. Briefly: RSV HEp-2 EC50 (infectious cytopathic cell protection assay). The settings on record: read-out: RSV HEp-2 EC50. Put shortly:
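Percent inhibition of RSV-induced cytopathic effect came from remaining cell viability (CellTiter-Glo luminescence) after 4 days at 37° C. Compounds in 3-fold serial dilutions were exposed to an infectious mix of titered A2 virus and HEp-2 cells at 50,000/ml, with 0% and 100% inhibition control standards.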
In general terms: Damage to the host cells serves as the signal in cytopathic effect assays.

In a further experiment the test system is DENV2 replicon. Kind of experiment: DENV-2 Huh-7 Rep EC50 (replicon luminescence). The conditions noted are these: read-out: DENV-2 Huh-7 Rep EC50. The method in brief:
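EC50 derived from luminescence dose-response, normalised to DMSO-only 0% inhibition wells, after 1.5 h with EnduRen substrate. Compounds were first exposed for 48 h at 37° C to DENV2 replicon Huh-7 cells (5,000/well).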

The mark [1] stands for this setting: 96 h, H1-HeLa cells, 33° C., read-out: HRV16 HELA EC50.
[2] abbreviates: human respiratory syncytial virus, NHBE, 96 h, NHBE cells, RSV A2, 4 days.
The mark [3] stands for this setting: human respiratory syncytial virus, HEp-2, 96 h, HEp-2 cells, RSV A2, 4 days.
[4] abbreviates: Dengue virus, DENV2, Huh-7, 48 h, Huh-7 replicon cells, 48 hours.
Setting [5] is: H1-HeLa cells, 96 h, 33° C.; read-out: HRV16 HELA EC50.
Setting [6] is: human respiratory syncytial virus, 96 h, NHBE cells, RSV A2, 4 days.
[7] abbreviates: human respiratory syncytial virus, 96 h, HEp-2 cells, RSV A2, 4 days.
[8] abbreviates: Dengue virus, DENV2, Huh-7, 48 h.

The structures appear in SMILES notation. Like-named read-outs stand apart in the source and are kept apart here.

Data on 17 molecules can be found in patent US20230295201A1 (Gilead Sciences, Inc., priority 2020, published 2023).

As for `CCCCCCCCCCCCCCCCOC(=O)[C@H](C)NP(=O)(OC[C@@]1(C#N)O[C@@H](c2ccc3c(N)ncnn23)[C@H](O)[C@@H]1O)Oc1ccccc1` (stereo partly drawn) [Example 199, hexadecyl ((((2R,3S,4R,5S)-5-(4-aminopyrrolo[2,1-f][1,2,4]triazin-7-yl)-2-cyano-3,4-dihydroxytetrahydrofuran-2-yl)methoxy)(phenoxy)phosphoryl)-L-alaninate], the EC50 in the experiment with HRV16 (setting [1]) stood at 0.738 µM; with RSV A2 (setting [2]) it was 0.033 µM; with RSV strain A2 (setting [3]), 1.12 µM; in the experiment on DENV2 replicon (setting [4]) it was 37.8 µM.
As for `CCC(CC)COC(=O)[C@H](C)NP(=O)(N[C@@H](C)C(=O)OCC(C)(C)C)OC[C@@]1(C#N)O[C@@H](c2ccc3c(N)ncnn23)[C@H](O)[C@@H]1O` (stereo partly drawn) [Example 200, 2-ethylbutyl ((((2R,3S,4R,5S)-5-(4-aminopyrrolo[2,1-f][1,2,4]triazin-7-yl)-2-cyano-3,4-dihydroxytetrahydrofuran-2-yl)methoxy)(((S)-1-(neopentyloxy)-1-oxopropan-2-yl)amino)phosphoryl)-L-alaninate], the EC50 in the experiment on HRV16 (setting [5]) was 5.68 µM; in the experiment with RSV A2 (setting [6]) it was 0.125 µM; with RSV strain A2 (setting [7]), 1.4 µM; in the experiment on DENV2 replicon (setting [8]), greater than 50 µM.
Regarding `C[C@H](NP(=O)(OCC(F)(F)F)OC[C@@]1(C#N)O[C@@H](c2ccc3c(N)ncnn23)[C@H](O)[C@@H]1O)C(=O)OC1CCCCC1` (stereo partly drawn) [Example 201, cyclohexyl ((((2R,3S,4R,5S)-5-(4-aminopyrrolo[2,1-f][1,2,4]triazin-7-yl)-2-cyano-3,4-dihydroxytetrahydrofuran-2-yl)methoxy)(2,2,2-trifluoroethoxy)phosphoryl)-L-alaninate], the EC50 in the experiment on HRV16 (setting [5]) is 10.3 µM; in the experiment on RSV A2 (setting [6]) it was 3.1 µM; in the experiment on RSV strain A2 (setting [7]), 2.52 µM; in the experiment with DENV2 replicon (setting [8]), greater than 50 µM.
As for `C[C@H](NP(=O)(OC[C@@]1(C#N)O[C@@H](c2ccc3c(N)ncnn23)[C@H](O)[C@@H]1O)Oc1ccccc1)C(=O)OC1CCCN(CC(F)(F)F)CC1` (stereo partly drawn) [Example 204, 1-(2,2,2-trifluoroethyl)azepan-4-yl ((((2R,3S,4R,5S)-5-(4-aminopyrrolo[2,1-f][1,2,4]triazin-7-yl)-2-cyano-3,4-dihydroxytetrahydrofuran-2-yl)methoxy)(phenoxy)phosphoryl)alaninate], the EC50 turned out to be 1.38 µM with HRV16 (setting [1]), 0.628 µM with RSV A2 (setting [2]), 0.463 µM with RSV strain A2 (setting [3]) and 27.5 µM in the experiment with DENV2 replicon (setting [4]).
Regarding `CC(C)(C)C(=O)OCCNP(=O)(NCCOC(=O)C(C)(C)C)OC[C@@]1(C#N)O[C@@H](c2ccc3c(N)ncnn23)[C@H](O)[C@@H]1O` [Example 208], the EC50 is greater than 50 µM with HRV16 (setting [1]), greater than 4.22 µM with RSV A2 (setting [2]), greater than 32.8 µM in the experiment with RSV strain A2 (setting [3]) and greater than 50 µM in the experiment with DENV2 replicon (setting [8]).
On to `CCOC(=O)c1ccccc1OP(=O)(OC[C@@]1(C#N)O[C@@H](c2ccc3c(N)ncnn23)[C@H](O)[C@@H]1O)Oc1ccccc1C(=O)OCC` [Example 209, ((2R,3S,4R,5S)-5-(4-aminopyrrolo[2,1-f][1,2,4]triazin-7-yl)-2-cyano-3,4-dihydroxytetrahydrofuran-2-yl)methyl bis-2-ethylbenzoate phosphate], for which the EC50 in the experiment with HRV16 (96 h, read-out: HRV16 HELA EC50) was 16.7 µM; with RSV A2 (human respiratory syncytial virus, NHBE, 96 h), greater than 5 µM; in the experiment on RSV strain A2 (human respiratory syncytial virus, HEp-2, 96 h) it was 1.46 µM; with DENV2 replicon (setting [8]) it was greater than 50 µM.
`C[C@H](NP(=O)(OC[C@@]1(C#N)O[C@@H](c2ccc3c(N)ncnn23)[C@H](O)[C@@H]1O)Oc1ccccc1)C(=O)OC[C@H]1CC[C@H](N)CC1` (stereo partly drawn) [Example 210, ((1r,4S)-4-aminocyclohexyl)methyl ((((2R,3S,4R,5S)-5-(4-aminopyrrolo[2,1-f][1,2,4]triazin-7-yl)-2-cyano-3,4-dihydroxytetrahydrofuran-2-yl)methoxy)(phenoxy)phosphoryl)-L-alaninate]: the EC50 in the experiment with HRV16 (setting [1]) is 27.9 µM; in the experiment with RSV A2 (setting [2]), 3.02 µM; in the experiment on RSV strain A2 (setting [3]), 1.78 µM; in the experiment with DENV2 replicon (setting [4]), greater than 50 µM.
The like results for `CCCCCCCC(=O)Nc1ncnn2c([C@@H]3O[C@](C#N)(CO[P@@](=O)(N[C@@H](C)C(=O)OC4CCCCC4)Oc4ccccc4)[C@@H](O)[C@H]3O)ccc12` [Example 212, Cyclohexyl ((S)-(((2R,3S,4R,5S)-2-cyano-3,4-dihydroxy-5-(4-octanamidopyrrolo[2,1-f][1,2,4]triazin-7-yl)tetrahydrofuran-2-yl)methoxy)(phenoxy)phosphoryl)-L-alaninate] were, in that order, 0.67 µM, greater than 5 µM, 0.133 µM and 9.77 µM.
As to `C[C@H](NP(=O)(N[C@@H](C)C(=O)OCC1CC1)OC[C@@]1(C#N)O[C@@H](c2ccc3c(N)ncnn23)[C@H](O)[C@@H]1O)C(=O)OCC1CC1` [Example 214, ((2R,3S,4R,5S)-5-(4-aminopyrrolo[2,1-f][1,2,4]triazin-7-yl)-2-cyano-3,4-dihydroxytetrahydrofuran-2-yl)methyl bis-cyclopropylmethyl L-alaninate phosphate], the EC50 in the experiment on HRV16 (setting [5]) is 25.8 µM; in the experiment on RSV A2 (setting [6]), 0.551 µM; with RSV strain A2 (setting [7]), 2.94 µM; with DENV2 replicon (setting [8]), greater than 50 µM.
Take `CCCCCOC(=O)C[C@H](NP(=O)(OC[C@@]1(C#N)O[C@@H](c2ccc3c(N)ncnn23)[C@H](O)[C@@H]1O)Oc1ccccc1)C(=O)OCCCCC` (stereo partly drawn) [Example 215, Dipentyl ((((2R,3S,4R,5S)-5-(4-aminopyrrolo[2,1-f][1,2,4]triazin-7-yl)-2-cyano-3,4-dihydroxytetrahydrofuran-2-yl)methoxy)(phenoxy)phosphoryl)-L-aspartate]: the EC50 in the experiment on HRV16 (setting [1]) is 3.39 µM; in the experiment on RSV A2 (setting [2]), greater than 3 µM; in the experiment with RSV strain A2 (setting [3]), 1.1 µM; with DENV2 replicon (setting [4]), 44.3 µM.
Consider `CCCCCOC(=O)C[C@H](N[P@@](=O)(OC[C@@]1(C#N)O[C@@H](c2ccc3c(N)ncnn23)[C@H](O)[C@@H]1O)Oc1ccccc1)C(=O)OCCCCC` [Example 216], for which the EC50 is 32.8 µM in the experiment on HRV16 (setting [5]); greater than 4.39 µM in the experiment with RSV A2 (NHBE cells, RSV A2, 4 days); 4.23 µM with RSV strain A2 (HEp-2 cells, RSV A2, 4 days); 33 µM with DENV2 replicon (Huh-7 replicon cells, 48 hours).
The like results for `CCCCCOC(=O)C[C@H](N[P@](=O)(OC[C@@]1(C#N)O[C@@H](c2ccc3c(N)ncnn23)[C@H](O)[C@@H]1O)Oc1ccccc1)C(=O)OCCCCC` [Example 217] were, in that order, 4.66 µM, greater than 3.51 µM, 1.01 µM and 38 µM.
`CCCCOC(=O)[C@H](C)NP(=O)(N[C@@H](C)C(=O)OCCCC)OC[C@@]1(C#N)O[C@@H](c2ccc3c(N)ncnn23)[C@H](O)[C@@H]1O` [Example 218]: the EC50 in the experiment on HRV16 (setting [5]) is 11.3 µM; in the experiment on RSV A2 (setting [6]) it was 0.28 µM; with RSV strain A2 (setting [7]) it was 1.16 µM; in the experiment on DENV2 replicon (setting [8]), greater than 50 µM.
For `C[C@H](NP(=O)(N[C@@H](C)C(=O)OCc1ccccc1)OC[C@@]1(C#N)O[C@@H](c2ccc3c(N)ncnn23)[C@H](O)[C@@H]1O)C(=O)OCc1ccccc1` [Example 219], in that order: 6.04 µM, 0.178 µM, 1.76 µM and greater than 50 µM.
The like results for `CCC(CC)COC(=O)[C@H](CC)NP(=O)(N[C@@H](CC)C(=O)OCC(CC)CC)OC[C@@]1(C#N)O[C@@H](c2ccc3c(N)ncnn23)[C@H](O)[C@@H]1O` [Example 220] were, in that order, 10.6 µM, 0.34 µM, 4.26 µM and 29 µM.
Take `CCCCOC(=O)CC[C@H](NP(=O)(OC[C@@]1(C#N)O[C@@H](c2ccc3c(N)ncnn23)[C@H](O)[C@@H]1O)Oc1ccccc1)C(=O)OC1CCCCC1` (stereo partly drawn) [Example 229, 5-butyl 1-cyclohexyl ((((2R,3S,4R,5S)-5-(4-aminopyrrolo [2,1-f][1,2,4]triazin-7-yl)-2-cyano-3,4-dihydroxytetrahydrofuran-2-yl)methoxy)(phenoxy)phosphoryl)-L-glutamate]: the EC50 with HRV16 (setting [1]) was greater than 40.2 µM; with RSV A2 (setting [2]), greater than 5 µM; in the experiment on RSV strain A2 (setting [3]) it was greater than 13.3 µM; in the experiment on DENV2 replicon (setting [4]) it was 31.4 µM.
For `CCCC(=O)Nc1ncnn2c([C@@H]3O[C@](C#N)(CO[P@@](=O)(N[C@@H](C)C(=O)OC4CCCCC4)Oc4ccccc4)[C@@H](O)[C@H]3O)ccc12` [Example 231, Cyclohexyl ((S)-(((2R,3S,4R,5S)-5-(4-butyramidopyrrolo[2,1-f][1,2,4]triazin-7-yl)-2-cyano-3,4-dihydroxytetrahydrofuran-2-yl)methoxy)(phenoxy)phosphoryl)-L-alaninate], in that order: 1.2 µM, 0.19 µM, 0.152 µM and 14.7 µM.

By EC50 is commonly meant the midpoint of the concentration-response curve.
